The values that follow come from patent EP4778924A1 (Huons Co., Ltd., priority 2023, dated 2025).

The term IC50 denotes the concentration at which inhibition is half-maximal. Low readings indicate higher potency, high ones lower potency.

Counter-ions that a name gives are not always drawn.

T1 sequence (P19156 2-1034 limits assumed): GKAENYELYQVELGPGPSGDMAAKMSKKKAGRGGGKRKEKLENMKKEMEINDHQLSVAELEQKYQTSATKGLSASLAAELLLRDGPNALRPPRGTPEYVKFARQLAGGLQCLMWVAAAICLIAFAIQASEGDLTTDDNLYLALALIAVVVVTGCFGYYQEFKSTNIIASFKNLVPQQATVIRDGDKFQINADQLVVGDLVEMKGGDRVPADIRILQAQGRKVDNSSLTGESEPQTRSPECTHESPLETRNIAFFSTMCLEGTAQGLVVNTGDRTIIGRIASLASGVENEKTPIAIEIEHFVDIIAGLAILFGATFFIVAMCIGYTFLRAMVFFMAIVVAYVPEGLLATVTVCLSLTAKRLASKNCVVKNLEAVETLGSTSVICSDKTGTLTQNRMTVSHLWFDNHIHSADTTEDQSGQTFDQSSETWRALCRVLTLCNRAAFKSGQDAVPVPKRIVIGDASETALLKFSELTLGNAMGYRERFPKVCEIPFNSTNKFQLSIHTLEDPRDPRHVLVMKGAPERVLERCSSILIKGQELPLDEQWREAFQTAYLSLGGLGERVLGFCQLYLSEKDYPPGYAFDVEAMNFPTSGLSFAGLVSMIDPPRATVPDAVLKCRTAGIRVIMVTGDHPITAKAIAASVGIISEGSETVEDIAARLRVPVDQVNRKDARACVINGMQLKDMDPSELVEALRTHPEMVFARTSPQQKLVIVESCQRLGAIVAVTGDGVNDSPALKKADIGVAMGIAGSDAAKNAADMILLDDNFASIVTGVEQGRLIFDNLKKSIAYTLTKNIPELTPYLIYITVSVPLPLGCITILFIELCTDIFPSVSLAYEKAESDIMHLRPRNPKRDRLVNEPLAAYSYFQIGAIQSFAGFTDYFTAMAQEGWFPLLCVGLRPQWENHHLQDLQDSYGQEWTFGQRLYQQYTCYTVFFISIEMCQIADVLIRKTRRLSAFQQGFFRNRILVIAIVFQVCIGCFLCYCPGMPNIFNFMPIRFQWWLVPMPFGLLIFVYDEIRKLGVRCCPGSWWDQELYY
T1 sequence (P18434 whole entry partner): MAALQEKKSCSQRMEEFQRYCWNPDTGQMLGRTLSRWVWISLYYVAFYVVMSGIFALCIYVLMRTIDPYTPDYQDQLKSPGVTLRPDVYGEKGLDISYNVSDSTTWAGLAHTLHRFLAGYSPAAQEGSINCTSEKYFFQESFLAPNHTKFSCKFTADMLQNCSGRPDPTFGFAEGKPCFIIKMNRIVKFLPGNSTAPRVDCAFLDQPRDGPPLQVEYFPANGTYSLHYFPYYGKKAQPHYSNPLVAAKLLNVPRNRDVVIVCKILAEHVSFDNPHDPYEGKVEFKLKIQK

One assay addresses T1, Proton Pump (H^+,K^+-ATPase) (Sus scrofa, UniProt P19156).
T1 construct: gastric vesicles were isolated from porcine stomachs; from tissue; host or cells: porcine stomach (gastric vesicles)
The assay is described as follows: Inhibitory activity on proton pump (H+,K+-ATPase) activity, porcine gastric vesicles, malachite green readout. As to conditions: porcine gastric vesicles, pH 6.5, 8 mM KCl, 0.2 mM ATP. The assay is classed as biochemical. Summed up:
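Porcine gastric vesicles (100 ng) preincubated 30 min at 37°C with […] valinomycin and compound (0.1% DMSO final) in 50 mM Tris-HEPES, 5 mM MgCl2, 8 mM KCl, pH 6.5, then 0.2 mM ATP for 20 min at 37°C. Released phosphate measured by malachite green at 620 nm; IC50 via nonlinear regression of % inhibition.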
Turning to `Cc1cccc(C)c1CNc1cc(NC(=O)CNC(=O)CO)cn2c(C)c(C)nc12` [Example 95, N-(8-((2,6-dimethylbenzyl)amino)-2,3-dimethylimidazo[1,2-a]pyridin-6-yl)-2-(2-hydroxyacetamido)acetamide], the IC50 is under 50 nM.
`Cc1cccc(C)c1CNc1cc(NC(=O)[C@H](C)O)cn2c(C)c(C)nc12` [Example 96, (S)-N-(8-((2,6-dimethylbenzyl)amino)-2,3-dimethylimidazo[1,2-a]pyridin-6-yl)-2-hydroxypropanamide citrate]: the IC50 lay in the range of 100 to 500 nM.
As to `Cc1cccc(C)c1CNc1cc(NC(=O)[C@@H](C)O)cn2c(C)c(C)nc12` [Example 97, (R)-N-(8-((2,6-dimethylbenzyl)amino)-2,3-dimethylimidazo[1,2-a]pyridin-6-yl)-2-hydroxypropanamide citrate], the half-inhibitory concentration (IC50) lay within 50 to 100 nM.
On the same count and under the same terms, next, `CNCC(=O)Nc1cc(NCc2c(C)cccc2C)c2nc(C)c(C)n2c1` [Example 98, N-(8-((2,6-dimethylbenzyl)amino)-2,3-dimethylimidazo[1,2-a]pyridin-6-yl)-2-(methylamino)acetamide hydrochloride]: 50 to 100 nM; `Cc1cccc(C)c1CNc1cc(NC(=O)CCN)cn2c(C)c(C)nc12` [Example 99, 3-amino-N-(8-((2,6-dimethylbenzyl)amino)-2,3-dimethylimidazo[1,2-a]pyridin-6-yl)propanamide hydrochloride]: 50 to 100 nM; `Cc1cccc(C)c1CNc1cc(NC(=O)N2CCNCC2)cn2c(C)c(C)nc12` [Example 103, N-(8-((2,6-dimethylbenzyl)amino)-2,3-dimethylimidazo[1,2-a]pyridin-6-yl)piperazine-1-carboxamide hydrochloride]: 100 to 500 nM.
Consider `Cc1cccc(C)c1CNc1cc(NC(=O)c2ccccc2)cn2c(C)c(C)nc12` [Example 104, N-(8-((2,6-dimethylbenzyl)amino)-2,3-dimethylimidazo[1,2-a]pyridin-6-yl)benzamide citrate], for which the IC50 fell in the range of 100 to 500 nM.
`Cc1cccc(C)c1CNc1cc(NC(=O)[C@H]2CCNC2)cn2c(C)c(C)nc12` [Example 105, (S)-N-(8-((2,6-dimethylbenzyl)amino)-2,3-dimethylimidazo[1,2-a]pyridin-6-yl)pyrrolidine-3-carboxamide hydrochloride] had an IC50 of 100 to 500 nM.
In the case of `Cc1cccc(C)c1CNc1cc(NC(=O)[C@@H]2CCCCN2)cn2c(C)c(C)nc12` [Example 106, (S)-N-(8-((2,6-dimethylbenzyl)amino)-2,3-dimethylimidazo[1,2-a]pyridin-6-yl)piperidine-2-carboxamide hydrochloride], the half-inhibitory concentration (IC50) is 100 to 500 nM.
Same read-out and setting: next, `CC(=O)Oc1ccc(/C=C/C(=O)Nc2cc(NCc3c(C)cccc3C)c3nc(C)c(C)n3c2)cc1` [Example 107, (E)-4-(3-((8-((2,6-dimethylbenzyl)amino)-2,3-dimethylimidazo[1,2-a]pyridin-6-yl)amino)-3-oxoprop-1-en-1-yl)phenyl acetate]: over 500 nM.
Consider `COc1cc(/C=C/C(=O)Nc2cc(NCc3c(C)cccc3C)c3nc(C)c(C)n3c2)ccc1OC(C)=O` [Example 108, (E)-4-(3-((8-((2,6-dimethylbenzyl)amino)-2,3-dimethylimidazo[1,2-a]pyridin-6-yl)amino)-3-oxoprop-1-en-1-yl)-2-methoxyphenyl acetate], for which the 50% inhibitory concentration (IC50) was over 500 nM.
The same measure, in the same setting: next, `Cc1cccc(C)c1CNc1cc(NC(=O)[C@@H]2CN2)cn2c(C)c(C)nc12` [Example 109, (S)-N-(8-((2,6-dimethylbenzyl)amino)-2,3-dimethylimidazo[1,2-a]pyridin-6-yl)aziridine-2-carboxamide hydrochloride]: 100 to 500 nM; `Cc1cccc(C)c1CNc1cc(NC(=O)[C@H]2CCN(C(=O)CO)C2)cn2c(C)c(C)nc12` [Example 110, (S)-N-(8-((2,6-dimethylbenzyl)amino)-2,3-dimethylimidazo[1,2-a]pyridin-6-yl)-1-(2-hydroxyacetyl)pyrrolidine-3-carboxamide citrate]: 100 to 500 nM; `CC(=O)O[C@H](C)C(=O)Nc1cc(NCc2c(C)cc(F)cc2C)c2nc(C)c(C)n2c1` [Example 111, (R)-1-((8-((4-fluoro-2,6-dimethylbenzyl)amino)-2,3-dimethylimidazo[1,2-a]pyridin-6-yl)amino)-1-oxopropan-2-yl acetate]: 100 to 500 nM.
In turn, `CC(=O)O[C@@H](C)C(=O)Nc1cc(NCc2c(C)cc(F)cc2C)c2nc(C)c(C)n2c1` [Example 112, (S)-1-((8-((4-fluoro-2,6-dimethylbenzyl)amino)-2,3-dimethylimidazo[1,2-a]pyridin-6-yl)amino)-1-oxopropan-2-yl acetate] displayed a half-maximal inhibitory concentration (IC50) of over 500 nM.
For the compound `CC(=O)OC1(C(=O)Nc2cc(NCc3c(C)cc(F)cc3C)c3nc(C)c(C)n3c2)CC1` [Example 113, 1-((8-((4-fluoro-2,6-dimethylbenzyl)amino)-2,3-dimethylimidazo[1,2-a]pyridin-6-yl)carbamoyl)cyclopropyl acetate], the half-inhibitory concentration (IC50) was 100 to 500 nM.
Turning to `Cc1cc(F)cc(C)c1CNc1cc(NC(=O)[C@H](C)O)cn2c(C)c(C)nc12` [Example 114, (S)-N-(8-((4-fluoro-2,6-dimethylbenzyl)amino)-2,3-dimethylimidazo[1,2-a]pyridin-6-yl)-2-hydroxypropanamide], the IC50 lay in the range of 100 to 500 nM.
In the case of `Cc1cc(F)cc(C)c1CNc1cc(NC(=O)C2(O)CC2)cn2c(C)c(C)nc12` [Example 115, N-(8-((4-fluoro-2,6-dimethylbenzyl)amino)-2,3-dimethylimidazo[1,2-a]pyridin-6-yl)-1-hydroxycyclopropane-1-carboxamide], the concentration for half-maximal inhibition (IC50) was under 50 nM.
`Cc1cc(F)cc(C)c1CNc1cc(N2C(=O)CN(C)C2=O)cn2c(C)c(C)nc12` [Example 116, 3-(8-((4-fluoro-2,6-dimethylbenzyl)amino)-2,3-dimethylimidazolidine[1,2-a]pyridin-6-yl)-1-methylimidazolidine-2,4-dione]: the half-maximal inhibitory concentration (IC50) was 50 to 100 nM.
Consider `Cc1cc(F)cc(C)c1CNc1cc(NC(=O)[C@@H](C)O)cn2c(C)c(C)nc12` [Example 117, (R)-N-(8-((4-fluoro-2,6-dimethylbenzyl)amino)-2,3-dimethylimidazo[1,2-a]pyridin-6-yl)-2-hydroxypropanamide], for which the IC50 was under 50 nM.
In turn, `Cc1cccc(C)c1CNc1cc(NC(=O)[C@H]2CCCNC2)cn2c(C)c(C)nc12` [Example 118, (S)-N-(8-((2,6-dimethylbenzyl)amino)-2,3-dimethylimidazo[1,2-a]pyridin-6-yl)piperidine-3-carboxamide hydrochloride] showed a half-inhibitory concentration (IC50) of 100 to 500 nM.
On the same count and under the same terms, next, `Cc1cccc(C)c1CNc1cc(NC(=O)CCNC(=O)CO)cn2c(C)c(C)nc12` [Example 119, N-(8-((2,6-dimethylbenzyl)amino)-2,3-dimethylimidazo[1,2-a]pyridin-6-yl)-3-(2-hydroxyacetamido)propanamide]: 50 to 100 nM.
Same read-out and setting: next, `Cc1cccc(C)c1CNc1cc(NC(=O)[C@H]2CCCN(C(=O)CO)C2)cn2c(C)c(C)nc12` [Example 120, (S)-N-(8-((2,6-dimethylbenzyl)amino)-2,3-dimethylimidazo[1,2-a]pyridin-6-yl)-1-(2-hydroxyacetyl)piperidine-3-carboxamide]: 100 to 500 nM.

The assay is the same for the next values; noted with them: result in words.
Consider `Cc1cc(F)cc(C)c1CNc1cc(NC(=O)C2(O)CC2)cn2c(C)c(C)nc12` [Example 115, N-(8-((4-fluoro-2,6-dimethylbenzyl)amino)-2,3-dimethylimidazo[1,2-a]pyridin-6-yl)-1-hydroxycyclopropane-1-carboxamide], for which the “inhibitory activity against proton pump activity” value is recorded as “excellent inhibitory properties”.
With `Cc1cc(F)cc(C)c1CNc1cc(NC(=O)[C@@H](C)O)cn2c(C)c(C)nc12` [Example 117, (R)-N-(8-((4-fluoro-2,6-dimethylbenzyl)amino)-2,3-dimethylimidazo[1,2-a]pyridin-6-yl)-2-hydroxypropanamide], the “inhibitory activity against proton pump activity” value is reported as “excellent inhibitory properties”.
